Data taken from ChEMBL document CHEMBL5465560, “Selectivity Literature for EUbOPEN Chemogenomic Library” (2024).
One block for each compound: values may come before it.

Experiments:
[1] = molecular target: Homeodomain-interacting protein kinase 2 (Homo sapiens, UniProt Q9H2X6); test: Selectivity interaction (Ambit KINOMEscan and KiNATiv profiling in Jurkat cells) EUB0000090b HIPK2; type: cell-based; settings: at 1 µM
[2] = molecular target: Bone morphogenetic protein receptor type-1A (Homo sapiens, UniProt P36894); test: Selectivity interaction (KinomeScan (DiscoverX)) EUB0000618a BMPR1A; settings: at 10 µM
Sequence of Bone morphogenetic protein receptor type-1A (P36894 whole entry): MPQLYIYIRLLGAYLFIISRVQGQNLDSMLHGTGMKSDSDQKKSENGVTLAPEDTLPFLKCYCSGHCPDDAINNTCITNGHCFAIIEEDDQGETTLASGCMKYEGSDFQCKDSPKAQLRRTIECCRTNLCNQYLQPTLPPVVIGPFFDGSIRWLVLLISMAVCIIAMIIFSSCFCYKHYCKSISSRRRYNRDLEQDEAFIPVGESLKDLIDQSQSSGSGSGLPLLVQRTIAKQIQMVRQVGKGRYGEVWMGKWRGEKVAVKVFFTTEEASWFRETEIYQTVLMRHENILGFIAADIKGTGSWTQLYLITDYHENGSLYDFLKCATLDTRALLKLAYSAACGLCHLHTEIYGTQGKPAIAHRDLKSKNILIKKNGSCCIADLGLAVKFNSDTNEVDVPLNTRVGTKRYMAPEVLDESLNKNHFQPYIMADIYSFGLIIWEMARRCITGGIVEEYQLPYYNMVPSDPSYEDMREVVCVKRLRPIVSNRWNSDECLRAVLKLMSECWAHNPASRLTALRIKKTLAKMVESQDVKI

[3] = molecular target: Mitogen-activated protein kinase 3 (Homo sapiens, UniProt P27361); test: Selectivity interaction (KinomeScan (DiscoverX)) EUB0000618a MAPK3; settings: at 10 µM
[4] = molecular target: T1, Fibroblast growth factor receptor 3 (Homo sapiens, UniProt P22607); test: Selectivity interaction (Kinase panel (DSF assay)) EUB0001558a FGFR3
T1 sequence (P22607 23-806 limits assumed): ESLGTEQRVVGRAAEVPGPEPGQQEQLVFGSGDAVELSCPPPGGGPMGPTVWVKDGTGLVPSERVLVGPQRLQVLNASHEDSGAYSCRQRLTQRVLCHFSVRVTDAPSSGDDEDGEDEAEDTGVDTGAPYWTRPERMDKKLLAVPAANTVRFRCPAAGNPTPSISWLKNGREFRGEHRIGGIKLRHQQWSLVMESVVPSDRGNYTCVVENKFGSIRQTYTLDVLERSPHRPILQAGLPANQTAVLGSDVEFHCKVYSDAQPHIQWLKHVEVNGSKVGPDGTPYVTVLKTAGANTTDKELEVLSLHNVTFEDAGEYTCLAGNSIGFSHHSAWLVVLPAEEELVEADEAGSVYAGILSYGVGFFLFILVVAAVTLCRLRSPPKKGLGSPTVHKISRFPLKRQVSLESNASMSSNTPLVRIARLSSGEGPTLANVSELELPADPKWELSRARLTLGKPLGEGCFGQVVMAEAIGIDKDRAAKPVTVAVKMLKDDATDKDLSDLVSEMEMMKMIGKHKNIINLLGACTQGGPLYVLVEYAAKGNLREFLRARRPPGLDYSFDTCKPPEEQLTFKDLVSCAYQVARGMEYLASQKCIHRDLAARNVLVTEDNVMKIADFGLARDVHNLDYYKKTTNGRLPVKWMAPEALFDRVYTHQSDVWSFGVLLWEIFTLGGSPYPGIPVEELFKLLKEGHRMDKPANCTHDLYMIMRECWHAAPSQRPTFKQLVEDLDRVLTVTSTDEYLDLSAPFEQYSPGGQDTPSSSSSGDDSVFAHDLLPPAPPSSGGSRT

[5] = molecular target: Serine/threonine-protein kinase 32B (Homo sapiens) (UniProt Q9NY57); test: Selectivity interaction (KinomeScan (DiscoverX)) EUB0000045b STK32B
Sequence of Serine/threonine-protein kinase 32B (Homo sapiens) (Q9NY57 whole entry): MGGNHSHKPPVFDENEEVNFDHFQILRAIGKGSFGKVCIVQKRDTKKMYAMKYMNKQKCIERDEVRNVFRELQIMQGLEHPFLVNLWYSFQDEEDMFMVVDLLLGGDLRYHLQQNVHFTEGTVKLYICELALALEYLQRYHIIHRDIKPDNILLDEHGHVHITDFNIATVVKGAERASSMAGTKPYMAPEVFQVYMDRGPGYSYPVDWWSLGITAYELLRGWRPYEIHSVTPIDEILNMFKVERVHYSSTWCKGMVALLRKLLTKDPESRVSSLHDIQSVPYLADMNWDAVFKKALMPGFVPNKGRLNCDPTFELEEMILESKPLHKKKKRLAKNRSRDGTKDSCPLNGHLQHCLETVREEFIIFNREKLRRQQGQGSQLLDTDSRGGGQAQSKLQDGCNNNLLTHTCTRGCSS

[6] = tested on: Fibroblast growth factor receptor 3 (Homo sapiens), P22607 [G697C]; settings: at 10 µM
Sequence of Fibroblast growth factor receptor 3 (Homo sapiens), P22607 [G697C] (P22607 whole entry G697C): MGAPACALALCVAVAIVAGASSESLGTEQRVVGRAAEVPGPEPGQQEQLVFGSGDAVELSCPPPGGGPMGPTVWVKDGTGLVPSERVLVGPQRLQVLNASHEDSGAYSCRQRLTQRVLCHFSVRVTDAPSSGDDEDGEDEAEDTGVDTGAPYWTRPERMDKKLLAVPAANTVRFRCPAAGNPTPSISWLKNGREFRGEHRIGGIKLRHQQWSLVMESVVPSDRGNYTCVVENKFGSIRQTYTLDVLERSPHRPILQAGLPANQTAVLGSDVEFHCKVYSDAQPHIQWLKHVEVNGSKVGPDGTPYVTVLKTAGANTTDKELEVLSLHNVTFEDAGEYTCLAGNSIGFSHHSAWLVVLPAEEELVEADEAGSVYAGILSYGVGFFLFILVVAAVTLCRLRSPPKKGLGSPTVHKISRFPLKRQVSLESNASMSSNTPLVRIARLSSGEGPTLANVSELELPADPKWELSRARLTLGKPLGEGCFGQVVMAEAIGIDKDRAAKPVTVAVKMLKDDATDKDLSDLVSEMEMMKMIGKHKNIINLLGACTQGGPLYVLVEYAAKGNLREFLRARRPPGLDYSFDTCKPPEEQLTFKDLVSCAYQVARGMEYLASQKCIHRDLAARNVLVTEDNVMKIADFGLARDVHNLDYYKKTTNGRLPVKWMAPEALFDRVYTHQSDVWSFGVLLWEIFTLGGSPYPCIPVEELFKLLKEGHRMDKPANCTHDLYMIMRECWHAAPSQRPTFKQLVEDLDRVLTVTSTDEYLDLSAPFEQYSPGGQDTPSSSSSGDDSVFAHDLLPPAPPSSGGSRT

[7] = molecular target: Microtubule-associated serine/threonine-protein kinase 3 (Homo sapiens) (UniProt O60307); test: Selectivity interaction (ActivX KiNativ screen (kinase selectivity in THP-1 cell lysates)) EUB0000639a MAST3; type: subcellular; settings: lysate
Sequence of Microtubule-associated serine/threonine-protein kinase 3 (Homo sapiens) (O60307 whole entry): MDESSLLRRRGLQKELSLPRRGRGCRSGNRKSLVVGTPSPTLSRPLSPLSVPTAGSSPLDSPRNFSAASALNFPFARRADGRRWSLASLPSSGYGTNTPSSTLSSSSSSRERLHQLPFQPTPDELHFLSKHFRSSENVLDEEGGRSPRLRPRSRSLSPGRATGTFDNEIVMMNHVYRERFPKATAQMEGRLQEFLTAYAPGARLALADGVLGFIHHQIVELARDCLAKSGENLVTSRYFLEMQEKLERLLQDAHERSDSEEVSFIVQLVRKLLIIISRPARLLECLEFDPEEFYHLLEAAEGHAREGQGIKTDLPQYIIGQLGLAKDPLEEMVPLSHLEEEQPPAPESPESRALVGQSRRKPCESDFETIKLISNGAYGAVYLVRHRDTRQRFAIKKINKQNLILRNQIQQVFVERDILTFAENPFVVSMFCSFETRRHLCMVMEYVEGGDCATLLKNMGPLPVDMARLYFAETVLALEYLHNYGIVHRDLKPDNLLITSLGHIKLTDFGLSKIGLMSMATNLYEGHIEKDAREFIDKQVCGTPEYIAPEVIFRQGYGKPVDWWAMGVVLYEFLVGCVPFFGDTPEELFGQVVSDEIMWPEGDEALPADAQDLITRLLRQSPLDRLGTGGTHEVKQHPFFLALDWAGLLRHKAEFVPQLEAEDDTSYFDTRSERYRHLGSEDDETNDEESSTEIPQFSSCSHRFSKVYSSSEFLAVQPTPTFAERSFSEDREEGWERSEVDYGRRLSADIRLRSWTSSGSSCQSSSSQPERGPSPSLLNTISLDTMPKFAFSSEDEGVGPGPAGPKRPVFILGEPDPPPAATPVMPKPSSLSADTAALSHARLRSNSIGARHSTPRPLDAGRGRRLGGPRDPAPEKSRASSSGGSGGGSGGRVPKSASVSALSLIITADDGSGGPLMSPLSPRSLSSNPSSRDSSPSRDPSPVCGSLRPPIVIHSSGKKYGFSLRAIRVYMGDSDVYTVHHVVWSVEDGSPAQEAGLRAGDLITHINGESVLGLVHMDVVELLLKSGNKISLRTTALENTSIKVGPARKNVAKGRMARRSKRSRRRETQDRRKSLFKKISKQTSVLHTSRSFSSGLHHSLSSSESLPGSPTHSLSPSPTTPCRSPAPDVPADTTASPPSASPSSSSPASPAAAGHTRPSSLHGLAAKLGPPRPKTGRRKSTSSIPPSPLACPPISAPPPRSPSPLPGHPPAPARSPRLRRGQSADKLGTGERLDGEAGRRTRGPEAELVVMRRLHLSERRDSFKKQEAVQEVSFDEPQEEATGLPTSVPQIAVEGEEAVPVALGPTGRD

[8] = molecular target: Beta-2 adrenergic receptor (Homo sapiens, UniProt P07550); test: Selectivity interaction (Beta 2 adrenergic receptor assay, human recombinant ) EUB0000877a ADRB2
[9] = molecular target: T2, Mitogen-activated protein kinase kinase kinase 3 (Homo sapiens) (UniProt Q99759); test: Selectivity interaction (KinomeScan (DiscoverX)) EUB0000092b MAP3K3; settings: at 10 µM
T2 sequence (whole entry): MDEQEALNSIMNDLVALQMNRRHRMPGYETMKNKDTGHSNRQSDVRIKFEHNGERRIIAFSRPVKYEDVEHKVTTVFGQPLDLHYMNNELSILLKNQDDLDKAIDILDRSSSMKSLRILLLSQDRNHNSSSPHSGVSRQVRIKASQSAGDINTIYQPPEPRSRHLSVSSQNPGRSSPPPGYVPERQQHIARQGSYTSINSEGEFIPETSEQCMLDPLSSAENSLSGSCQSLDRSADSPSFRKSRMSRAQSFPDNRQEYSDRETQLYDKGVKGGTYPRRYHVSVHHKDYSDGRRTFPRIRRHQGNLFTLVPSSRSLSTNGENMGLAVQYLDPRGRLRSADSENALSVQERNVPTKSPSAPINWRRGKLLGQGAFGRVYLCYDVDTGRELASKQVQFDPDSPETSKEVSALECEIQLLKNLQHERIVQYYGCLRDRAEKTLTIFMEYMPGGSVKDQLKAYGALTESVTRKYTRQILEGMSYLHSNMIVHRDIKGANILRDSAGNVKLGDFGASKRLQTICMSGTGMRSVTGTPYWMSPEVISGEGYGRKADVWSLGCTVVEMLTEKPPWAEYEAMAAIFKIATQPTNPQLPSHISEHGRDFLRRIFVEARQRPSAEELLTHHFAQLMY

[10] = molecular target: T1, Fibroblast growth factor receptor 3; test: (§1) Selectivity interaction (Kinase panel (Z-LYTE Assay)) EUB0001632a FGFR3; settings: at 10 µM
[11] = tested on: Fibroblast growth factor receptor 3 (Homo sapiens), P22607 [K650E]; test: as §1; settings: at 10 µM
Sequence of Fibroblast growth factor receptor 3 (Homo sapiens), P22607 [K650E] (P22607 whole entry K650E): as the sequence (P22607 whole entry G697C) above, with K650E, C697G counted along it

[12] = molecular target: TRAF2 and NCK-interacting protein kinase (Homo sapiens) (UniProt Q9UKE5); test: Selectivity interaction (LanthaScreen Eu Kinase Binding Assay) EUB0001632a TNIK; settings: at 10 µM
[13] = molecular target: T3, Mitogen-activated protein kinase kinase kinase 19 (Homo sapiens) (UniProt Q56UN5); test: Selectivity interaction (Kinase panel (Z-LYTE Assay)) EUB0001632a MAP3K19; settings: at 10 µM
T3 sequence (whole entry): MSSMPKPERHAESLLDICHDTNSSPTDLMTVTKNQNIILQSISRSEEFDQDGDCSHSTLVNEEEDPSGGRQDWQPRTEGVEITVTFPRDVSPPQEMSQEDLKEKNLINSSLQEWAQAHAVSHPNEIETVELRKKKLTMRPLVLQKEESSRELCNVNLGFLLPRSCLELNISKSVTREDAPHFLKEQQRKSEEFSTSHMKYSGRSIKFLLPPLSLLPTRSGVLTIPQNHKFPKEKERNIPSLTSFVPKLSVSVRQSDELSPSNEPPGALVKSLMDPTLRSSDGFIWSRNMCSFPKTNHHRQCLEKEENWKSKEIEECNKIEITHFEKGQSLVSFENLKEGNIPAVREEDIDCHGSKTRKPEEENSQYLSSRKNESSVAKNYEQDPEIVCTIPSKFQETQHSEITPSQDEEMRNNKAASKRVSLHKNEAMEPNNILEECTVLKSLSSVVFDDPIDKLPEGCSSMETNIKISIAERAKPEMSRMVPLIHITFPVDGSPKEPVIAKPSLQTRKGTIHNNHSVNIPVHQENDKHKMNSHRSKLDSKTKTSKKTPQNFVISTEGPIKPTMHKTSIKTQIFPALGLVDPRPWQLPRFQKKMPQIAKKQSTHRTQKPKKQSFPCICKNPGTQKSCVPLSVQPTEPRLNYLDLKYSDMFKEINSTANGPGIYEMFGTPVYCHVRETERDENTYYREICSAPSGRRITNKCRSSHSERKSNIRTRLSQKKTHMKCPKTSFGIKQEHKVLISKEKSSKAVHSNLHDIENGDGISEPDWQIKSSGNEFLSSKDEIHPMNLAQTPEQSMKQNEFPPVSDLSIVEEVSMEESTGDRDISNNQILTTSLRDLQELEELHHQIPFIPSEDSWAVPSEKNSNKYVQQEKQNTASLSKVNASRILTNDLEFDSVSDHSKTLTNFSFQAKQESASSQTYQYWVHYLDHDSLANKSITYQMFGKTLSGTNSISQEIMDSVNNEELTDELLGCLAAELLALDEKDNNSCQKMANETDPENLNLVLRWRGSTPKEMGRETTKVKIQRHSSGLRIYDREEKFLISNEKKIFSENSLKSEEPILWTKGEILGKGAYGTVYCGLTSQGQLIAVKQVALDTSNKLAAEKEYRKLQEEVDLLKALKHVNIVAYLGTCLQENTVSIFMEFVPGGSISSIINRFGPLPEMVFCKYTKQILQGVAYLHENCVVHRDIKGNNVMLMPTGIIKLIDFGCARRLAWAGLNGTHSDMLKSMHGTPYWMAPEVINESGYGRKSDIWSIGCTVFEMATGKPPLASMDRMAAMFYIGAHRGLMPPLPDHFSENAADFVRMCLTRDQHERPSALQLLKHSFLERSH

Sequence of Homeodomain-interacting protein kinase 2 (Q9H2X6 whole entry, looked up): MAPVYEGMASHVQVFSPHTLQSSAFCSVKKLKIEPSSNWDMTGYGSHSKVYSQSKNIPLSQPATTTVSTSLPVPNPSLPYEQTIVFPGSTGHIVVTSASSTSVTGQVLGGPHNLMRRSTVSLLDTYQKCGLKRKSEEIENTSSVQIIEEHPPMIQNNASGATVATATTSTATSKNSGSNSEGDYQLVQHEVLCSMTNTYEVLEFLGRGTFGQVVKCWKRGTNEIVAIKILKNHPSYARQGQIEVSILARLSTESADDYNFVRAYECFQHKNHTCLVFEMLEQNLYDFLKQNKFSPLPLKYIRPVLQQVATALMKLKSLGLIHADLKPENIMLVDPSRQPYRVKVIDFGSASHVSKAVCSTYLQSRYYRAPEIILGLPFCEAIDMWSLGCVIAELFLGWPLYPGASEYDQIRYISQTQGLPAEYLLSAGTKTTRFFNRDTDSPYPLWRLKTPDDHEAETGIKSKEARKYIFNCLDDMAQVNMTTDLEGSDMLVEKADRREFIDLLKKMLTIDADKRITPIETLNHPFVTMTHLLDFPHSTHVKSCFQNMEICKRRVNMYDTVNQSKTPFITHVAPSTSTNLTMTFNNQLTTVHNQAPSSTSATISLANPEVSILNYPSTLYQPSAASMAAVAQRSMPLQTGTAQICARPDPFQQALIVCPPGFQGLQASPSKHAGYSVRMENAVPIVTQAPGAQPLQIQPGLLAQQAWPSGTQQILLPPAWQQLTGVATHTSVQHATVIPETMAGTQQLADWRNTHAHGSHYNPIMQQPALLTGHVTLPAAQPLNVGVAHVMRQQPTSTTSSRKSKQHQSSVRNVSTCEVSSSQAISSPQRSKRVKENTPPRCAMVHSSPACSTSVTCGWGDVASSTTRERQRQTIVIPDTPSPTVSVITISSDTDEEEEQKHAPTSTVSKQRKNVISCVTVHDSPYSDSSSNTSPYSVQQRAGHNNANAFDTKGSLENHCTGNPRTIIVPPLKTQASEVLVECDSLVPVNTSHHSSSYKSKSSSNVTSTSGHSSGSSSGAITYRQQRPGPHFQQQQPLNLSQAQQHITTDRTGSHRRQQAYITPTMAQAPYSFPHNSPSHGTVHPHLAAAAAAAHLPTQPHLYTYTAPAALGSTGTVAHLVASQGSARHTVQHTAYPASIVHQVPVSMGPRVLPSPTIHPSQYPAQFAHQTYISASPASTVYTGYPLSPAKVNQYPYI

SMILES: CN(C)C/C=C/C(=O)Nc1ccc(C(=O)N2CCCC(Nc3ncc(Cl)c(-c4c[nH]c5ccccc45)n3)C2)cc1 (stereo not drawn)
% of control [1]: 70%

SMILES: O[C@H]1CC[C@H](Nc2ncc3nc(Nc4c(F)cc(F)cc4F)n([C@H]4CCOC4)c3n2)CC1
% of control [2]: 100% | % of control [3]: 32%

SMILES: CC(C)(O)[C@H](F)CN1Cc2cc(NC(=O)c3cnn4cccnc34)c(N3CCOCC3)cc2C1=O
dTM [4]: 2.5 K

SMILES: C=CC(=O)Nc1cc(-n2c(=O)ccc3cnc4ccc(-c5ccc(NS(C)(=O)=O)cc5)cc4c32)ccc1C
% of control ([5]; at 1 µM): 100% | % of control ([5]; at 10 µM): 100%

SMILES: Cc1cc([C@@H](C)Nc2ccccc2C(=O)O)c2nc(N3CCOCC3)cc(=O)n2c1 [AZD-6482]
% of control [6]: 100%

% of inhibition ([7]; at 0.01 µM): 11.4% | % of inhibition ([7]; at 0.04 µM): 9.3% | % of inhibition ([7]; at 0.2 µM): 2.6% | % of inhibition ([7]; at 1 µM): 4.8% | % of inhibition ([7]; at 5 µM): 32.1%
SMILES: CC[C@@H]1[C@H](F)C(=O)N[C@@H]1COc1nccc2cc(C(N)=O)c(OC)cc12 [ZIMLOVISERTIB]

IC50 [8]: > 30 µM
SMILES: CCC(=O)N1CC[C@H](Nc2ncnc3c2CN(c2cnc(OC)c(C(F)(F)F)c2)CC3)C1 [LENIOLISIB]

SMILES: CCC(=O)N1CCN(c2ccc(-n3c(=O)ccc4cnc5ccc(-c6cnc7ccccc7c6)cc5c43)cc2C(F)(F)F)CC1
% of control [9]: 75%

% of control [10]: 4.08% | % of control [11]: 19.3% | % of inhibition [12]: -13.9% | % of control [13]: -3.06%
SMILES: Cn1cc(-n2cnc3c(NCc4nc5cc(Cl)c(Cl)cc5[nH]4)nc(N4CCOCC4)nc32)cn1
